Laboratory results taken from paper PMC4529401 (Pharmaceutical research, 2015).
Read-outs that look alike come from different tables or passages of the source.

Columns and labels:
human OCT2 [1] = target: T1, human OCT2 (Homo sapiens, UniProt O15244); experiment: Transport of TEA and MPP in CHO cells that stably expressed human OCT2; format: cell-based; conditions: for true Kt for OCT2-mediated transport (suggested): authors' estimate in the discussion; for Ktapp of uptake: 30 sec uptakes
T1 sequence (O15244 1-555): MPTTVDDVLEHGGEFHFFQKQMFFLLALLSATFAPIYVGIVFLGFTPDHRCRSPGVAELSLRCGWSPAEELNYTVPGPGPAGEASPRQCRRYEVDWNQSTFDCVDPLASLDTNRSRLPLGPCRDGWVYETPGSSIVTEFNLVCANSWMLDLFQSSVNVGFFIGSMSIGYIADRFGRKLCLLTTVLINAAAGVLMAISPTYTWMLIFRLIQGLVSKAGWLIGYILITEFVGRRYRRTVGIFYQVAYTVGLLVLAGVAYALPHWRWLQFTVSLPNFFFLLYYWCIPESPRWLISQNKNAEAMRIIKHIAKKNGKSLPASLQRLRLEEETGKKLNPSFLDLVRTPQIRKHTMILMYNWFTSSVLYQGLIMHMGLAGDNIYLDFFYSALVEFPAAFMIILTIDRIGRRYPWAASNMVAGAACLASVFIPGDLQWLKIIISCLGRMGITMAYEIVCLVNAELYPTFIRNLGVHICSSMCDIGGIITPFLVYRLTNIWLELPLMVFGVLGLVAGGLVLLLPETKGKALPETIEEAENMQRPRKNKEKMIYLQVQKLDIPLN

human OCT2 [2] = target: T1, human OCT2; conditions: ref Morales & Wright, unpublished; cited from earlier work
human OCT2 [3] = target: T1, human OCT2; experiment: Literature kinetic parameters for OCT2-mediated transport, cells; format: cell-based; conditions: median of the values in Table I
[4] = OCT2 knockdown cells (shRNA #6), paired studies, three (TEA) or four (MPP)
[5] = control (fully expressing) cells, paired studies, three (TEA) or four (MPP)
[6] = control (unshaken), 96 well plate, n=3
[7] = shaken (reciprocal, 13 Hz), 96 well plate, n=3

## C[n+]1ccc(-c2ccccc2)cc1 [MPP, 1-Methyl-4-phenylpyridinium]
Human OCT2 [1]; 24 well plate, flat-bed orbital shaker 300 rpm (5 Hz), [3H] substrate, P < 0.05
  increase of 30 sec uptake by shaking: 50%
Human OCT2 [1]; [4]
  Jmax: 6.1 ± 1.2 pmol cm^−2 min^−1
  apparent Kt: 3.8 ± 0.5 µM
Human OCT2 [1]; OCT2 knockdown cells, six paired experiments (n = 6)
  Ktapp: 3.3 ± 0.9 µM
Human OCT2 [1]; Table I, present study
  Jmax: 35 pmol cm^−2 min^−1
  Ktapp: 9 µM
Human OCT2 [1]
  true Kt for OCT2-mediated transport (suggested): 1 to 2 µM
Human OCT2 [1]; calculated from present study Jmax and a 1500 µm UWL
  Winne ‘bias’: 7 µM
Human OCT2 [1]; cells with reduced OCT2 expression (RNAi)
  maximum transport rates, fold lower than in parental OCT2-expressing cells: 11 fold
Human OCT2 [1]; [5]
  Jmax: 64.7 ± 16.6 pmol cm^−2 min^−1
  apparent Kt: 16.6 ± 4.0 µM
Human OCT2 [1]; [6]
  Ktapp of uptake: 6.5 ± 0.4 µM
  Jmax: 35.4 ± 1.4 pmol cm^−2 min^−1
Human OCT2 [1]; intercept of the Jmax vs Ktapp relationship (linear regression)
  estimated true Kt: 1.8 ± 1.6 µM
Human OCT2 [1]; knockdown (shRNA #6) vs control cells, […] [14C]TEA plus 1.0 nM [3H]MPP
  reduction in the 15 sec uptake in OCT2 knockdown cells: 55%
Human OCT2 [1]; knockdown vs control cells
  reduction of Jmax in OCT2 knockdown cells: 90%
Human OCT2 [1]; [7]
  Ktapp of uptake: 4.5 ± 0.5 µM
  Jmax: 37.4 ± 2.5 pmol cm^−2 min^−1

## CN(C)C(=N)N=C(N)N [Metformin]
Human OCT2 [2]
  Jmax: 265 pmol cm^−2 min^−1
  Ktapp: 378 µM
Human OCT2 [1]
  true Kt for OCT2-mediated transport (suggested): ~ 1000 µM
Human OCT2 [3]
  median Jmax: ~ 350 pmol cm^−2 min^−1
